Test results reported in PubChem BioAssay (NCI).
Where “and” joins values, the source holds several entries; their conditions need not be identical. Equal values may be shown once.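 96-well plates; 48 h exposure; 5 concentrations. Endpoints by linear interpolation between flanking doses. Not reached: highest tested concentration assigned. GI50 is the concentration that inhibits growth by half. At the TGI there is no net growth.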

What was measured:
Assay in all cases: NCI anticancer screen, dose series, 48 h
BT-549 breast = tested on: BT-549 breast
DU-145 prostate = tested on: DU-145 prostate
HS 578T breast = tested on: HS 578T breast
MDA-MB-231 breast = tested on: MDA-MB-231 breast
MDA-N = tested on: MDA-N
DMS 114 small cell lung = tested on: DMS 114 small cell lung
DMS 273 small cell lung = tested on: DMS 273 small cell lung
XF 498 CNS = tested on: XF 498 CNS
RXF-631 renal = tested on: RXF-631 renal

SMILES | GI50 (BT-549 breast) | TGI (BT-549 breast) [µM] | GI50 (DU-145 prostate) | TGI (DU-145 prostate) | GI50 (HS 578T breast) | TGI (HS 578T breast) | GI50 (MDA-MB-231 breast) | TGI (MDA-MB-231 breast) | TGI (DMS 114 small cell lung) [µM] | TGI (DMS 273 small cell lung) [µM] | other results
O=C(N[C@@H]1CCCc2ccccc21)[C@H](CCC(=O)N1CCN(C2CCCCC2)CC1)N1C(=O)[C@@H](N2C(=O)OC[C@@H]2c2ccccc2)[C@H]1/C=C/c1ccccc1 | 1.76 µM | 3.92 | 2.9 µM | 19.3 µM | 3.52 µM | 21.1 µM | 1.89 µM | 4.12 µM | – | – | –
O=C1c2ccccc2-c2cc3ccccc3c(=O)n21 | – | – | – | > 100 µM | – | > 100 µM | – | – | – | – | TGI (MDA-N): > 100 µM
CCOC(=O)/C=C1\Nc2ccccc2C(c2ccccc2)=NC1OC(C)=O (stereo not given) | – | – | – | – | – | – | – | – | > 100 | > 100 | –
c1ccc(SCCCC(Sc2ccccc2)Sc2ccccc2)cc1 | – | – | – | – | – | – | – | – | > 100 | > 100 | TGI (XF 498 CNS): > 100 µM
CN1CC2(CCCCC2)C(O)C12C=CCCC2 (stereo not given) | – | – | – | – | – | – | – | – | > 100 | > 100 | TGI (XF 498 CNS): > 100 µM
O=c1c2ccccc2nc(-c2ccccc2)n1NCC1(O)OCC(O)C(O)C1O (stereo not given) | – | – | – | – | – | – | – | – | > 100 | > 100 | –
CC(C)OP(=O)(CP(=O)(OC(C)C)OC(C)C)OC(C)C.[CH3][Sn]([Br])([Br])[Br] | – | – | – | – | – | – | – | – | > 100 | > 100 | GI50 (DMS 114 small cell lung): > 100 µM; GI50 (DMS 273 small cell lung): > 100 µM; GI50 (RXF-631 renal): > 100 µM; TGI (RXF-631 renal): > 100 µM
COc1ccccc1C(=O)c1cnc(NC2CCN(S(C)(=O)=O)CC2)nc1N | > 13.3 µM | > 25 | 6.51 µM | > 25 µM | 11.4 µM | > 25 µM | 7.27 µM | > 25 µM | – | – | –
c1ccc2c(c1)CCCc1cc3ccccc3nc1-2 | – | – | – | – | – | – | – | – | 75.1 | – | TGI (XF 498 CNS): > 100 µM
COc1c(O)c(OC)c(C(=O)/C=C/c2ccccc2)c(O)c1OC | – | – | – | > 100 µM | – | > 100 µM | – | 72 µM | – | – | TGI (MDA-N): 46 µM
O=C(/C=C/N1CCN(c2cccc(C(F)(F)F)c2)CC1)c1ccc(Cl)cc1Cl | 20.5 µM | 40.3 | 35.1 µM | > 100 µM | 27.5 µM | 63.8 µM | 26.8 µM | 59.8 µM | – | – | –
Cn1c(=O)n(-c2ccc(C(C)(C)C#N)cc2)c2c3cc(-c4cnc5ccccc5c4)ccc3ncc21 | 0.00493 µM and < 0.01 µM | – | < 0.01 µM and 0.00575 µM | 33.8 µM and > 10 µM and > 100 µM | < 0.01 µM and 0.00204 µM | 0.0195 µM and 0.00587 µM | 0.0197 µM and 0.00686 µM and < 0.011 µM | 48.5 µM and > 10 µM and > 44.3 µM | – | – | –
C/C(=N\N(C)C)C(CN(C)C)C(c1ccccc1)c1c(O)c2ccccc2oc1=O (stereo not given) | – | – | – | – | – | – | – | – | > 100 | > 100 | TGI (XF 498 CNS): > 100 µM
CC1OC(=O)N(CCCC=C2SCCCS2)C1=O (stereo not given) | – | – | – | – | – | – | – | – | > 100 | > 100 | TGI (XF 498 CNS): > 100 µM
O=C1OC(c2ccc(O)cc2)(c2ccc(O)cc2)c2cccc3cccc1c23 | 1.26 µM | 4.01 | 17.2 µM | 31.6 µM | 0.249 µM | 20.9 µM | 14.2 µM | 35.5 µM | – | – | –
CCCC/C(=N\N=C(N)N)c1ccc(F)cc1 | 3.48 µM | 12.5 | 3.89 µM | 14.7 µM | 2.88 µM | 8.81 µM | 5.42 µM | 18.9 µM | – | – | –
COc1ccc2c(c1O)[C@@]13C=C(O)C(=O)C=C1[C@@H](C2)N(C)CC3 | – | > 100 | – | > 100 µM | – | > 100 µM | – | > 100 µM | – | – | TGI (MDA-N): > 100 µM
COc1cc[nH]c1/C=C1\C(=O)Nc2ccc(F)c(C#CC3(O)CCOCC3)c21 | 0.556 µM | 1.37 | 0.806 µM | > 25 µM | 0.528 µM | 3.56 µM | 0.885 µM | > 25 µM | – | – | –

SMILES | GI50 (BT-549 breast) | TGI (BT-549 breast) [µM] | GI50 (DU-145 prostate) | TGI (DU-145 prostate) | GI50 (HS 578T breast) | TGI (HS 578T breast) | GI50 (MDA-MB-231 breast) | TGI (MDA-MB-231 breast) | TGI (DMS 114 small cell lung) [µM] | TGI (DMS 273 small cell lung) [µM] | other results
COC(=O)C12CC(C3CC31)C1CC12 (stereo not given) | – | – | – | – | – | – | – | – | > 100 | > 100 | TGI (RXF-631 renal): > 100 µM
COc1cc(C2C3=C(COC3=O)N(CCO)c3cc4c(cc32)CCC4)cc(OC)c1O (stereo not given) | 0.68 µM | > 9.16 | 0.136 µM | 2.31 µM | 0.106 µM | 11.4 µM | 0.76 µM | > 32.5 µM | – | – | –
COc1ccc2nc3ccc(OC)cc3c(SCCCN)c2c1 | 10.5 µM | 23.4 | 1.81 µM | 3.26 µM | 5.9 µM | 15.5 µM | 9.78 µM | 25.3 µM | – | – | –
CO[C@H]1C=C[C@]23c4cc5c(cc4CN(CC2O)[C@@H]3C1)OCO5 (stereo not given in full) | – | 13.7 | – | 7.62 µM | – | 81.9 µM | – | 34.6 µM | – | – | TGI (MDA-N): 64.8 µM
CCC1OCCN1C(C)C (stereo not given) | – | – | – | – | – | – | – | – | > 100 | > 100 | –
CC1=CC2=C(C)C3(CC3)[C@@](C)(O)C(=O)C2=C1 | – | – | – | – | – | – | – | – | 0.313 | 0.696 | TGI (XF 498 CNS): 0.341 µM
N#Cc1c2c(c(N=[N+]=[N-])n3c1nc1ccccc13)CCCC2 | – | – | – | – | – | – | – | – | 4.37 | 6.52 | TGI (XF 498 CNS): 3.13 µM
CC(C)OP(=O)(OC(C)C)C(N(C)C)P(=O)(OC(C)C)OC(C)C.[Cl][Sn]([Cl])([Cl])[c]1ccccc1 | – | – | – | – | – | – | – | – | 23.1 | 10.6 | GI50 (DMS 114 small cell lung): 3.68 µM; GI50 (DMS 273 small cell lung): 2.67 µM
COC(=O)c1cc(Nc2ccc(O)c3c2C(=O)c2c([N+](=O)[O-])ccc(O)c2C3=O)cc(C(=O)OC)c1 | 13.7 µM | > 100 | 1.75 µM | 3.51 µM | 3.77 µM | > 100 µM | 13.8 µM | > 100 µM | – | – | –
COc1cc2ccn3c4cc(OC)c(OC)cc4cc3c2cc1OC | – | – | – | – | – | – | – | – | > 100 | – | TGI (XF 498 CNS): > 100 µM
COc1ccc(C[C@H]2C[C@@H](O)[C@@H](C)C/C=C/Cc3cccc(O)c3C(=O)O2)cn1 | 20.7 µM | 48.8 | 27.7 µM | > 100 µM | 14.4 µM | 36.7 µM | 16.4 µM | 39.6 µM | – | – | –
CCOP(=O)(OCC)/C(C#N)=C\c1cccc2ccccc12 | – | > 100 | – | > 100 µM | – | 57.7 µM | – | > 100 µM | – | – | TGI (MDA-N): > 100 µM
CC1=C(C#N)C(N)=C2C(C)=C(C#N)C(N)=C12 | – | – | – | – | – | – | – | – | > 100 | > 100 | TGI (XF 498 CNS): > 100 µM
CC1(CC(=O)O)OC2CCCCCC2O1 (stereo not given) (tested in a mixture with another compound) | – | > 100 | – | > 100 µM | – | > 100 µM | – | > 100 µM | – | – | TGI (MDA-N): > 100 µM
Clc1ccc2c(Cl)ncnc2c1 | – | – | – | – | – | – | – | – | – | > 100 | TGI (XF 498 CNS): > 100 µM
COC(=O)/C(C#N)=C1\N=NNN1CCCN1CCOCC1 | – | – | – | – | – | – | – | – | > 100 | > 100 | –
C/C(=C(/c1ccc(O)cc1)c1ccc(OCCN2CCCC2)cc1)c1ccccc1 | 4.2 µM | 15.7 | 9.72 µM | 21.4 µM | 2.96 µM | 9.9 µM | 3.51 µM | 8.4 µM | – | – | –
